Data on eleven molecules can be found in PMC11052913, “Determination of Regorafenib monohydrate (colorectal anticancer drug) solubility in supercritical CO2: Experimental and thermodynamic modeling” (Heliyon, 2024).

Structures can show the parent of a compound that is named as a salt. Where two headings read alike, the source gives them in different places. Marks after values point to notes of the source that are not given here.

The conditions of data set [1]: cited from earlier work.
Data set [2] can be described thus: Solubility of REG in supercritical CO2, static isobaric-isothermal method with UV-Vis quantification. The data set is classed as physicochemical. As for the experimental part:
The solubility of REG in ScCO2 was measured using a pilot-scale apparatus, as depicted in Fig. 1. […] An F-1 CO2 cylinder, an F-2 needle valve, an F-3 molecular sieve filter, an F-4 refrigeration unit, an F-5 high-pressure pump, an F-6 air compressor, an F-7 oven, an F-8 magnetic stirrer, an F-9 high-pressure equilibrium cell, an F-10 3-position valve, and an F-16 back-pressure valve were all part of the apparatus.
In each experimental trial, a consistent amount of 1 g of the REG drug was administered into the immobile cell, which was subsequently positioned inside a thermal chamber. The aforementioned measure was enacted with the purpose of ensuring that the temperature remains within a narrow range of ±0.1 K from the designated experimental point. At both cell ends, stainless-steel sintered filters were added to limit undissolved REG. After that, high-pressure CO2 was poured into the cell and allowed to sit for 70 min in order to obtain saturation. Based on earlier studies, we know that 60 min is sufficient to achieve balance. The isobaric-isothermal category includes this kind of measurement. Throughout the experiment, the target temperatures and pressure levels were kept within ±0.1 K and ±0.1 MPa, respectively, for every data point. Following the triplicate execution of the experiments, the average solubility values were computed.
After reaching equilibrium, we used a 2-position 6-way port valve to collect 600 μL of saturated ScCO2 samples. The materials were thereafter transferred into a vial that was pre-filled with dimethyl sulfoxide (DMSO). The flow rate was managed by means of a micrometer valve. Each experiment was finished with the flow line being purified with 1 mL of DMSO after 5 mL of the solution had been collected. Using a UNICO-4802 UV–Vis spectrophotometer set to a peak wavelength (λmax) of 275 nm, we examined the absorbance of REG in DMSO for solubility assessment. The solubility of REG in ScCO2 was determined according to a given equation. The amount of REG dissolved in ScCO2, denoted as (y2), was measured in terms of mole fraction. […] The quantification of the dissolved substance was accomplished through the measurement of UV absorbance. The calculation of the moles of REG (nREG) and CO2 (n1) in the loop was performed as follows:(1) nREG=CREG(g/L).VREG(L)/MREG(g/mol) (2) n1=V1(L).ρ1(g/L)/M1(g/mol)
The concentration of REG (g/L) in the collection vial is denoted as CREG. The sampling loop and the collection vial are represented by V1 (L) and VREG (L), respectively. The symbols M1 and MREG represent the molar masses of carbon dioxide (CO2) and a substance denoted as REG, respectively. The method out-lined in references was employed to determine the equilibrium mole fraction of REG, denoted as y2, in supercritical CO2 under varying temperatures and pressures.(3) y2=nREG/n1+nREG
The following equation was applied to determine the solubility of REG, S (in g/L), in the supercritical CO2(4) S=CREG(g/L).VREG(L)/V1(L)
Eq. (4) can be reformulated as below:(5) S=ρMREG/M1y2/(1−y2) In fact, Eq. (5) is another form of Eq. (4).

Data set [3] in a line: Total, vaporization and solvation enthalpies of the REG-ScCO2 system estimated from Chrastil, Kumar-Johnston and Bartle et al. model constants. The data set is classed as physicochemical. The text has this: In Fig. 3, the self-consistency test of experimental REG solubility data employed the models Chrastil, Kumar-Johnston, Bartle et al., and Mendez-Teja. […] In other words, wherein all data points at different isotherms falls onto a single straight line, indicating the self-consistency test for the solubility of REG in ScCO2 at different temperatures.
Analogous techniques were applied for Galantamine, Clonazepam, Lansoprazole, and Esomeprazole. Finally, the total (ΔHtot-=-41.16 kJ/mol), vaporization (ΔHvap-=-60.04 kJ/mol), and solvation (ΔHsol-=-18.88 kJ/mol) enthalpies for the REG-ScCO2 binary system were estimated as part of this work. More detail of enthalpies of the REG can be seen in Table 4.

Details of data set [4]: method as in PMID 28214672, doi:10.1016/j.jddst.2019.101462. As to conditions: pH 6.5 and 22–23 °C; cited from earlier work.

For `CC(=O)N(c1ccccc1)c1ccc(C)cc1` [4-Methyl-N-phenylacetanilide], in data set [1] (N 21, T 308-328 K, P 12.16-22.5 MPa, ref [2] of supplement), the “Mole fraction solubility in ScCO2” value is recorded as 38.4-480.2 (×10^6) mole fraction.
Consider `Cc1ccc(C(=O)O)cc1` [4-Methylbenzoic acid], for which the “Mole fraction solubility in ScCO2” value in data set [1] (N 18, T 313-333 K, P 11-24.6 MPa, ref [3] of supplement) is reported as 43-702 (×10^6) mole fraction.
For `CS(=O)(=O)OCCCCOS(C)(=O)=O` [Busulfan], the “Mole fraction solubility in ScCO2” value in data set [1] (N 32, T 308-328 K, P 12-40 MPa, ref [5] of supplement) is reported as 32.7-865 (×10^6) mole fraction.
Consider `O=C(O)c1ccccc1Nc1cccc(Cl)c1Cl` [Clofenamic acid], for which, in data set [1] (N 24, T 313-333 K, P 12-36 MPa, ref [9] of supplement), the “Mole fraction solubility in ScCO2” value is on record as 1.54-35.44 (×10^6) mole fraction.
For `CC(C)(Oc1ccc(Cl)cc1)C(=O)O` [Clofibric acid], in data set [1] (N 21, T 308-328 K, P 10.01-22.02 MPa, clofibric acid, ref [7] of supplement), the “Mole fraction solubility in ScCO2” value is given as 32.1-856 (×10^6) mole fraction.
Turning to `O=C1CN=C(c2ccccc2Cl)c2cc([N+](=O)[O-])ccc2N1` [Clonazepam], the “Mole fraction solubility in ScCO2” value in data set [1] (N 28, T 308-338 K, P 12-30 MPa, ref [1] of supplement) is reported as 3.9-72.6 (×10^6) mole fraction.
Take `Cc1nc(Nc2ncc(C(=O)Nc3c(C)cccc3Cl)s2)cc(N2CCN(CCO)CC2)n1` [Dasatinib monohydrate]: in data set [1] (N 24, T 328-338 K, P 12-27 MPa, ref [11] of supplement), the “Mole fraction solubility in ScCO2” value was 0.45 - 9.08 (×10^6) mole fraction.
Regarding `Cc1ccc(C)c(OCCCC(C)(C)C(=O)O)c1` [Gemfibrozil], the “Mole fraction solubility in ScCO2” value in data set [1] (N 21, T 308-328 K, P 10.01-22.02 MPa, gemfibrozil, ref [7] of supplement) is listed as 29.4-4190 (×10^6) mole fraction.
Turning to `Nc1nnc(-c2cccc(Cl)c2Cl)c(N)n1` [Lamotrigine], the “Mole fraction solubility in ScCO2” value in data set [1] (N 36, T 318-338 K, P 12.16-35.46 MPa, ref [8] of supplement) is 0.3-5.9 (×10^6) mole fraction.
Regarding `COc1cc2nc(N3CCN(C(=O)c4ccco4)CC3)nc(N)c2cc1OC` [Prazosin Hydrochloride], in data set [1] (N 24, T 328-338 K, P 12-27 MPa, ref [12] of supplement), the “Mole fraction solubility in ScCO2” value is recorded as 1.5-72 (×10^6) mole fraction.
As for `CNC(=O)c1cc(Oc2ccc(NC(=O)Nc3ccc(Cl)c(C(F)(F)F)c3)c(F)c2)ccn1` [Regorafenib monohydrate, 4-(4-(3-(4-chloro-3-(trifluoromethyl)phenyl)ureido)-3-fluorophenoxy)-N-methylpicolinamide], the S (equilibrium solubility) in ScCO2 came out at 10.6 µg/mL in data set [2] (308 K, 120 bar, CO2 density 769 kg/m^3); 15.5 µg/mL in data set [2] (308 K, 150 bar, CO2 density 817 kg/m^3); 18 µg/mL in data set [2] (308 K, 180 bar, CO2 density 849 kg/m^3); 22.6 µg/mL in data set [2] (308 K, 210 bar, CO2 density 875 kg/m^3); 29.2 µg/mL in data set [2] (308 K, 240 bar, CO2 density 896 kg/m^3); 31.5 µg/mL in data set [2] (308 K, 270 bar, CO2 density 914 kg/m^3). The S (equilibrium solubility) in ScCO2 was determined as 7.2 µg/mL in data set [2] (318 K, 120 bar, CO2 density 661 kg/m^3); 9.8 µg/mL in data set [2] (318 K, 150 bar, CO2 density 744 kg/m^3); 12.4 µg/mL in data set [2] (318 K, 180 bar, CO2 density 791 kg/m^3); 28.7 µg/mL in data set [2] (318 K, 210 bar, CO2 density 824 kg/m^3); 31.9 µg/mL in data set [2] (318 K, 240 bar, CO2 density 851 kg/m^3); 37.2 µg/mL in data set [2] (318 K, 270 bar, CO2 density 872 kg/m^3). Also, the S (equilibrium solubility) in ScCO2 in data set [2] (328 K, 120 bar, CO2 density 509 kg/m^3) turned out to be 3.6 µg/mL; in data set [2] (328 K, 150 bar, CO2 density 656 kg/m^3), 7 µg/mL; in data set [2] (328 K, 180 bar, CO2 density 725 kg/m^3) it was 10 µg/mL; in data set [2] (328 K, 210 bar, CO2 density 769 kg/m^3), 33.1 µg/mL; in data set [2] (328 K, 240 bar, CO2 density 802 kg/m^3), 37.1 µg/mL; in data set [2] (328 K, 270 bar, CO2 density 829 kg/m^3), 39.2 µg/mL. Also, the S (equilibrium solubility) in ScCO2 in data set [2] (338 K, 120 bar, CO2 density 388 kg/m^3) is 1.3 µg/mL; in data set [2] (338 K, 150 bar, CO2 density 557 kg/m^3) it was 3.7 µg/mL; in data set [2] (338 K, 180 bar, CO2 density 652 kg/m^3) it was 7.2 µg/mL; in data set [2] (338 K, 210 bar, CO2 density 710 kg/m^3) it was 34.6 µg/mL; in data set [2] (338 K, 240 bar, CO2 density 751 kg/m^3), 41 µg/mL; in data set [2] (338 K, 270 bar, CO2 density 783 kg/m^3), 55.3 µg/mL. Besides, in data set [2] (isotherms 308–338 K), the “crossover pressure of the solubility isotherms in ScCO2” value is 18–21 MPa. The “maximum equilibrium mole fraction in ScCO2” value in data set [2] (over 308–338 K and 120–270 bar, maximum at 338 K and 27 MPa, listed as REG) is recorded as 6.44×10^−6 mole fraction. Besides, the “minimum equilibrium mole fraction in ScCO2” value in data set [2] (over 308–338 K and 120–270 bar, minimum at 338 K, listed as REG) is 3.06×10^−7 mole fraction. Further, the “vaporization enthalpy ΔHvap” value in data set [3] (based on Bartle et al. model) was 14.35 kcal/mol. In addition, the ΔHtot was 9.833 kcal/mol in data set [3] (based on Kumar-Johnston model) and 9.84 kcal/mol in data set [3] (based on the Chrastil model). The solubility in water in data set [4] is 0.12 µg/mL.
